Test results: BindingDB's records for doi:10.1080/14756360109162353 (Cardiff University, 2001)
Several values for one entry are separate records, joined by “and”; a condition that tells them apart may be missing. Equal values may be shown once.

Target: T1, 17-beta-hydroxysteroid dehydrogenase type 3 (Homo sapiens, UniProt P37058)
T1 sequence (P37058 whole entry): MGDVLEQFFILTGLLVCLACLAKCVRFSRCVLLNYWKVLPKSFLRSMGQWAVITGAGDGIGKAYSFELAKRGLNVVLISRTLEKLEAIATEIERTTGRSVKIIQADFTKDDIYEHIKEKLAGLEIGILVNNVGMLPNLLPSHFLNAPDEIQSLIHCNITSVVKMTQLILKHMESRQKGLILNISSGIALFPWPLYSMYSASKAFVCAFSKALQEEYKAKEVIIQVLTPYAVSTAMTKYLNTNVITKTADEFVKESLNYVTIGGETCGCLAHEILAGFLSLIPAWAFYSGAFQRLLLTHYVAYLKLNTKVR
Assay: Inhibition Assay
Settings: pH 7.45; 37 °C
Description: Inhibition assay of human testes mcrosomal 17 beta-hydroxysteroid dehydrogenase for the reduction of androstenedione.

| IC50 | Compound |
| --- | --- |
| 32.4 µM | O=c1c(O)c(-c2ccc(O)c(O)c2)oc2cc(O)ccc12 [2-(3,4-dihydroxyphenyl)-3,7-dihydroxy-chromen-4-one] |
| 14.8 µM | Oc1ccc(O)c(-c2ccccc2)c1 [2-Phenylhydroquinone, 7] |
| 76.2 µM | CCN(CC)CCOc1ccc(/C(=C(\Cl)c2ccccc2)c2ccccc2)cc1 [2-[4-[(Z)-2-chloranyl-1,2-diphenyl-ethenyl]phenoxy]-N,N-diethyl-ethanamine;2-oxidanylpropane-1,2,3-tricarboxylic acid] |
| 5.7 µM | O=C1C=CC(=O)C(c2ccccc2)=C1 [2-phenylcyclohexa-2,5-diene-1,4-dione] |
| 10.8 µM | COc1ccc(-c2coc3cc(O)cc(O)c3c2=O)cc1 [5,7-dihydroxy-3-(4-methoxyphenyl)-4H-chromen-4-one] |
| 16.4 µM | O=c1cc(-c2ccccc2)oc2ccc(O)cc12 [6-hydroxy-2-phenyl-4H-chromen-4-one] |
| 9.15 µM | C#CCC1(C(=O)OC(=C(c2ccccc2)c2ccccc2)c2ccccc2)CC(=O)NC1=O (stereo not drawn) [17Beta-HSD Inhibitor, 3] |
| 30.3 µM | O=c1c(-c2ccc(O)cc2)coc2cc(O)cc(O)c12 [Prunetol] |

| Compound | IC50 |
| --- | --- |
| O=c1c(O)c(-c2cc(O)c(O)c(O)c2)oc2cc(O)cc(O)c12 | 100 µM |
| O=c1cc(-c2ccc(O)cc2)oc2cc(O)cc(O)c12 [Naringenin, 18] | 21.3 µM and 16.4 µM |
